The IC50 is the concentration that gives 50% inhibition.

For 18 molecules, IC50 and half-life results are on record in patent publication US20230150946A1, “HETEROCYCLE CONTAINING STAT INHIBITORS AND COMPOSITIONS” (JANPIX LIMITED, priority 2020, published 2023).

Like-named read-outs stand apart in the source and are kept apart here.

Data set [1] concerns MV4-11 cells. As to the kind of experiment: MV4-11 Cell Cytotoxicity Assay (CellTiter-Blue, 72 h). The data set is classed as cell-based, human. As to conditions: 72 h at 37° C. The procedure:
In some embodiments, the potency of the STAT5 inhibitors are evaluated by an in vitro assay such as MV4-11 Cell Cytotoxicity Assay. MV4-11 cells were grown in Iscove's Modified Dulbecco's Medium (IMDM) supplemented with 10% fetal bovine serum (FBS). 10,000 cells were plated per well in 96-well flat-bottom sterile culture plates with low-evaporation lids. After 24 h, inhibitors and a vehicle control (0.5% DMSO) were added and the cells were incubated for 72 h at 37° C. in 5% CO2. Inhibitors were examined in triplicate at a maximal concentration of 50 μM, followed by 1:2 dilutions in subsequent wells (25, 12.5, 6.25, 3.125, 1.5625, 0.78125, 0.390625, 0.195313 and 0.097656 μM). After 72 h, the wells were treated with CellTiter-Blue® (20 μL/well), and the plates were incubated using standard cell culture conditions for 1 hour. Fluorescence was measured at 560/590 nm.

Data set [2] in a line: Reactivity Profiling with Glutathione (GSH), HPLC. The data set is classed as in vitro ADME. The following applies: 5 mM glutathione (GSH) in cell culture medium, 25 μM inhibitor, IMDM 10% FBS, 0.5% DMSO, 25° C., read-out: T1/2-GSH. The protocol:
In some embodiments, metabolic stability of the compounds are evaluated according to their reactivity profiles with GSH.
3.5 μL of 5 mM stocking solution of the inhibitors in DMSO was added to 697.5 μL of Iscove's Modified Dulbecco's Medium (IMDM) supplemented with 10% FBS and antibiotic antimycotic solution, with 5 mM glutathione to afford a final concentration of 25 μM inhibitor with 0.5% DMSO. The solution was then immediately placed in the sample tray at 25° C. Sample was analyzed at pre-defined intervals, typically every 1.5 hours, for up to four injections, by HPLC, included at time zero, without further pre-treatment. For each inhibitor, its peak is integrated at different time points and compared to the time zero injection in order to obtain a percentage remaining. Half-life is calculated according to a first order reaction kinetic taking into account those time points for which remaining percentage of inhibitor is above 40%, using the formula: t½=Ln(2)/k, where k is the slope of the linear plot of Ln[Inhibitor] vs time, according to the formula: Ln[A]=Ln[A]0−kt, where [A] is the value resulting from the integration at each time point, [A]0 the value at time zero, and t the time. For each inhibitor, both replicates are averaged and the resulting t½ reported. Selective reactivity against GSH in particular is confirmed by incubation of the inhibitor in the same solution without the presence of GSH, and single analysis after a time longer than the latest time point analyzed for the samples with GSH.

Setting [3] is: Homo sapiens, Table 3, read-out: IC50-MV-4-11.

For the molecule `CC(C)(C)c1cc(CN(C(=O)CN(Cc2ccc(Cl)cc2)S(=O)(=O)c2c(F)c(F)c(F)c(F)c2F)c2cccnc2)cc(C2CC2)c1` [Compound 1001, N-(3-(tert-butyl)-5-cyclopropylbenzyl)-2-(N-(4-chlorobenzyl)-(2,3,4,5,6-pentafluorophenyl)sulfonamido)-N-(pyridin-3-yl) acetamide], the IC50 in data set [1] (setting [3]) lay within 1000 to 3160 nM. Regarding `CC(C)(C)c1cc(CN(C(=O)CN(Cc2ccc(Cl)cc2)S(=O)(=O)c2c(F)c(F)c(F)c(F)c2F)c2ccc(O)nc2)cc(C2CC2)c1` [Compound 1002, N-(3-(tert-butyl)-5-cyclopropylbenzyl)-2-(N-(4-chlorobenzyl)-(2,3,4,5,6-pentafluorophenyl)sulfonamido)-N-(6-hydroxypyridin-3-yl) acetamide], the IC50 in data set [1] (setting [3]) was 1000 to 3160 nM. Moreover, the half-life at 25 μM in data set [2] is 9.23 to 1670 h.

As to `CC(C)(C)c1cc(CN(C(=O)CN(Cc2ccc(Cl)cc2)S(=O)(=O)c2c(F)c(F)c(F)c(F)c2F)c2ccc(C(=O)O)nc2)cc(C2CC2)c1` [Compound 1004, 5-(N-(3-(tert-butyl)-5-cyclopropylbenzyl)-2-(N-(4-chlorobenzyl)-(2,3,4,5,6-pentafluorophenyl)sulfonamido)acetamido) picolinic acid], the IC50 in data set [1] (setting [3]) fell in the range of 3160 to 100000 nM. With `COc1ccc(N(Cc2cc(C3CC3)cc(C(C)(C)C)c2)C(=O)CN(Cc2ccc(Cl)cc2)S(=O)(=O)c2c(F)c(F)c(F)c(F)c2F)cn1` [Compound 1005, N-(3-(tert-butyl)-5-cyclopropylbenzyl)-2-(N-(4-chlorobenzyl)-(2,3,4,5,6-pentafluorophenyl)sulfonamido)-N-(6-methoxypyridin-3-yl) acetamide], the IC50 in data set [1] (setting [3]) was 3160 to 100000 nM. In the case of `CC(C)(C)c1cc(CN(C(=O)CN(Cc2ccc(Cl)cc2)S(=O)(=O)c2c(F)c(F)c(F)c(F)c2F)c2cnc(N)nc2)cc(C2CC2)c1` [Compound 1006, N-(2-aminopyrimidin-5-yl)-N-(3-(tert-butyl)-5-cyclopropylbenzyl)-2-(N-(4-chlorobenzyl)-(2,3,4,5,6-pentafluorophenyl)sulfonamido)acetamide], the IC50 in data set [1] (setting [3]) lay within 1000 to 3160 nM. For the same molecule, in data set [2], the half-life at 25 μM was in the range of 9.23 to 1670 h. As to `CC(C)(C)c1cc(CN(C(=O)CN(Cc2ccc(Cl)cc2)S(=O)(=O)c2c(F)c(F)c(F)c(F)c2F)c2ccc(N)nc2)cc(C2CC2)c1` [Compound 1007, N-(6-aminopyridin-3-yl)-N-(3-(tert-butyl)-5-cyclopropylbenzyl)-2-(N-(4-chlorobenzyl)-(2,3,4,5,6-pentafluorophenyl)sulfonamido)acetamide], in data set [1] (setting [3]), the 50% inhibitory concentration (IC50) was 1000 to 3160 nM. Turning to `CC(C)(C)c1cc(CN(C(=O)CN(Cc2ccccc2F)S(=O)(=O)c2c(F)c(F)c(F)c(F)c2F)c2ccc(N)nc2)cc(C2CC2)c1` [Compound 1008, N-(6-aminopyridin-3-yl)-N-(3-(tert-butyl)-5-cyclopropylbenzyl)-2-(N-(2-fluorobenzyl)-(2,3,4,5,6-pentafluorophenyl)sulfonamido)acetamide], the IC50 in data set [1] (setting [3]) lay in the range of 1000 to 3160 nM. In the case of `CC(C)(C)c1cc(CN(C(=O)CN(Cc2ccccc2F)S(=O)(=O)c2c(F)c(F)c(F)c(F)c2F)c2cnc(N)nc2)cc(C2CC2)c1` [Compound 1009, N-(2-aminopyrimidin-5-yl)-N-(3-(tert-butyl)-5-cyclopropylbenzyl)-2-(N-(2-fluorobenzyl)-(2,3,4,5,6-pentafluorophenyl)sulfonamido)acetamide], in data set [1] (setting [3]), the IC50 lay within 0.01 to 1000 nM. The half-life at 25 μM in data set [2] lay in the range of 4.12 to 9.23 h. For `CN(C)c1c(NCCN(Cc2cc(C3CC3)cc(C(C)(C)C)c2)C(=O)CN(Cc2ccccc2F)S(=O)(=O)c2c(F)c(F)c(F)c(F)c2F)c(=O)c1=O` [Compound 1010, N-(3-(tert-butyl)-5-cyclopropylbenzyl)-N-(2-((2-(dimethylamino)-3,4-dioxocyclobut-1-en-1-yl)amino)ethyl)-2-(N-(2-fluorobenzyl)-(2,3,4,5,6-pentafluorophenyl)sulfonamido)acetamide], the IC50 in data set [1] (setting [3]) lay within 0.01 to 1000 nM. Further, the half-life at 25 μM in data set [2] was in the range of 9.23 to 1670 h.

Turning to `CN(C)c1c(NCCN(Cc2cc(C3CC3)cc(C(C)(C)C)c2)C(=O)CN(Cc2c(F)cc(F)cc2F)S(=O)(=O)c2c(F)c(F)c(F)c(F)c2F)c(=O)c1=O` [Compound 1011, N-(3-(tert-butyl)-5-cyclopropylbenzyl)-N-(2-((2-(dimethylamino)-3,4-dioxocyclobut-1-en-1-yl)amino)ethyl)-2-(N-(2,4,6-trifluorobenzyl)-(2,3,4,5,6-pentafluorophenyl)sulfonamido)acetamide], in data set [1] (setting [3]), the IC50 was in the range of 0.01 to 1000 nM. Take `CN(C)c1c(NCCN(Cc2cc(C3CC3)cc(C(C)(C)C)c2)C(=O)CN(Cc2cnccc2C(F)(F)F)S(=O)(=O)c2c(F)c(F)c(F)c(F)c2F)c(=O)c1=O` [Compound 1012, N-(3-(tert-butyl)-5-cyclopropylbenzyl)-N-(2-((2-(dimethylamino)-3,4-dioxocyclobut-1-en-1-yl)amino)ethyl)-2-(N-((4-(trifluoromethyl)pyridin-3-yl)methyl)-(2,3,4,5,6-pentafluorophenyl)sulfonamido)acetamide]: the IC50 in data set [1] (setting [3]) lay within 0.01 to 1000 nM. Also, the half-life at 25 μM in data set [2] is 4.12 to 9.23 h.

For the molecule `CNc1c(NCCN(Cc2cc(C3CC3)cc(C(C)(C)C)c2)C(=O)CN(Cc2ccccc2F)S(=O)(=O)c2c(F)c(F)c(F)c(F)c2F)c(=O)c1=O` [Compound 1013, N-(3-(tert-butyl)-5-cyclopropylbenzyl)-N-(2-((2-(methylamino)-3,4-dioxocyclobut-1-en-1-yl)amino)ethyl)-2-(N-(2-fluorobenzyl)-(2,3,4,5,6-pentafluorophenyl)sulfonamido)acetamide], the IC50 in data set [1] (setting [3]) is 0.01 to 1000 nM. In addition, the half-life at 25 μM in data set [2] fell in the range of 9.23 to 1670 h. Take `CN(C)c1c(N(C)CCN(Cc2cc(C3CC3)cc(C(C)(C)C)c2)C(=O)CN(Cc2ccccc2F)S(=O)(=O)c2c(F)c(F)c(F)c(F)c2F)c(=O)c1=O` [Compound 1014, N-(3-(tert-butyl)-5-cyclopropylbenzyl)-N-(2-((2-(dimethylamino)-3,4-dioxocyclobut-1-en-1-yl) (methyl)amino)ethyl)-2-(N-(2-fluorobenzyl)-(2,3,4,5,6-pentafluorophenyl)sulfonamido)acetamide]: the IC50 in data set [1] (setting [3]) lay in the range of 0.01 to 1000 nM. The half-life at 25 μM in data set [2] lay in the range of 9.23 to 1670 h.

For `CN(C)c1c(NCCCN(Cc2cc(C3CC3)cc(C(C)(C)C)c2)C(=O)CN(Cc2ccccc2F)S(=O)(=O)c2c(F)c(F)c(F)c(F)c2F)c(=O)c1=O` [Compound 1015, N-(3-(tert-butyl)-5-cyclopropylbenzyl)-N-(3-((2-(dimethylamino)-3,4-dioxocyclobut-1-en-1-yl)amino)propyl)-2-(N-(2-fluorobenzyl)-(2,3,4,5,6-pentafluorophenyl)sulfonamido)acetamide], the IC50 in data set [1] (setting [3]) lay in the range of 0.01 to 1000 nM. Regarding `CNc1c(N(C)CCN(Cc2cc(C3CC3)cc(C(C)(C)C)c2)C(=O)CN(Cc2ccccc2F)S(=O)(=O)c2c(F)c(F)c(F)c(F)c2F)c(=O)c1=O` [Compound 1016, N-(3-(tert-butyl)-5-cyclopropylbenzyl)-N-(2-(methyl(2-(methylamino)-3,4-dioxocyclobut-1-en-1-yl)amino)ethyl)-2-(N-(2-fluorobenzyl)-(2,3,4,5,6-pentafluorophenyl)sulfonamido)acetamide], the IC50 in data set [1] (setting [3]) fell in the range of 0.01 to 1000 nM. On to `CC(C)(C)c1cc(CN(C(=O)CN(Cc2cnccc2C(F)(F)F)S(=O)(=O)c2c(F)c(F)c(F)c(F)c2F)c2cnc(N)nc2)cc(C2CC2)c1` [Compound 1017, N-(2-aminopyrimidin-5-yl)-N-(3-(tert-butyl)-5-cyclopropylbenzyl)-2-(N-((4-(trifluoromethyl)pyridin-3-yl)methyl)-(2,3,4,5,6-pentafluorophenyl)sulfonamido)acetamide], for which the IC50 in data set [1] (setting [3]) lay within 0.01 to 1000 nM. As to `CC(C)(C)c1cc(CN(C(=O)CN(Cc2ccc(Cl)cc2)S(=O)(=O)c2c(F)c(F)c(F)c(F)c2F)C2=CNC(=O)NC2)cc(C2CC2)c1` [Compound 1018, N-(3-(tert-butyl)-5-cyclopropylbenzyl)-2-(N-(4-chlorobenzyl)-(2,3,4,5,6-pentafluorophenyl)sulfonamido)-N-(2-oxo-1,2,3,4-tetrahydropyrimidin-5-yl)acetamide], in data set [1] (Homo sapiens, Table 4, read-out: IC50-MV-4-11), the IC50 lay in the range of 1000 to 3160 nM. As to “N-(3-(tert-butyl)-5- cyclopropylbenzyl)-2-(N-(4- chlorobenzyl)-(2,3,4,5,6- pentafluorophenyl) sulfonamido)-N-(2- methoxypyrimidin-5-yl) acetamide [Compound 1003]”, the IC50 in data set [1] (Table 3, read-out: IC50-MV-4-11) fell in the range of 1000 to 3160 nM.
